Read-outs that look alike come from different tables or passages of the source.
Experiments:
Ctns^−/− mice = tested on: Ctns^−/− mice
Procedure: Ctns^−/− mice were exposed to myeloablative drugs currently used in clinic for HSC transplantation, Busulfan (Bu) and Cyclophosphamide (Cy) to test if drug-mediated myeloablation allow efficient engraftment of Ctns-expressing HSC in the preclinical model, decreased tissue cystine and to determine if any unexpected toxicity occurs because of cystinosis. Drugs were injected intraperitoneally (IP) in Ctns^−/− mice and WT mice as controls.

[1] = affected patients; cited from earlier work

In the case of `CS(=O)(=O)OCCCCOS(C)(=O)=O` [Bu, Busulfan], the “donor cell engraftment measured in the peripheral blood” value (Ctns^−/− mice; 4 months post-transplant) is reported as 94.0±0.8% and the “toxicity in Ctns^−/− mice” value (Ctns^−/− mice; mouse, in vivo, ip) is reported as “not toxic”.
For `O=P1(N(CCCl)CCCl)NCCCO1` (stereo not shown) [Cy, Cyclophosphamide], the “toxicity in Ctns^−/− mice” value (Ctns^−/− mice; IP injection, 4 months post-transplant, compared to WT controls) was “not toxic”.
For `NCCS` [cysteamine, mercaptoethylamine], the “effect on renal Fanconi syndrome” value [1] is given as “has no effect”.

Source: patent publication US11806367B2, “Methods of treating lysosomal disorders” (The Regents of the University of California, priority 2017, dated 2023)
